target: T1, human GPR139 (Homo sapiens, UniProt Q6DWJ6); test: Inhibition rate of the amount of IP1 in GPR139-expressed CHO cells (inverse agonist assay, Test Example 2); format: cell-based; details: CHO, relative value, inhibition rate of Example Compound 2 in Test Example 1 defined as 100%
T1 construct: expressed in transfected cells; host or cells: CHO-TREx (Life Technologies) cells, expression induced with doxycycline
T1 sequence (Q6DWJ6 1-353): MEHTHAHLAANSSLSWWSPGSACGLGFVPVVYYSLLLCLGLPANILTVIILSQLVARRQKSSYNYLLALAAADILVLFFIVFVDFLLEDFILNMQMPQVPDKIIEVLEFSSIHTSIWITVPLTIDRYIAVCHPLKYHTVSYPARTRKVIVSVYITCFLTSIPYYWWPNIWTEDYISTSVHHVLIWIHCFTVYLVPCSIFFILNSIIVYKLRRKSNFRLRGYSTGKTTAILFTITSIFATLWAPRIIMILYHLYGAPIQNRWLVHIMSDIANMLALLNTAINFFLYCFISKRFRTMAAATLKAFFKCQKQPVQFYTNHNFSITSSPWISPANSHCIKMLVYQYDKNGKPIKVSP
In short: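 IP1 accumulation read by IP-One HTRF after 40 min compound exposure at 37° C in stimulation buffer, 2000 cells/well, GPR139 expression induced the day before with doxycycline. Results given as relative inhibition rate, normalised to a reference compound set at […].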

Structure (SMILES) | inhibition at 30 µM
CCn1cc(Cn2cc(C)n(-c3cc(C(F)(F)F)cc(N4CCO[C@H](C)C4)n3)c2=O)cn1 [Example 18, 1-[(1-Ethyl-1H-pyrazole-4-yl)methyl]-4-methyl-3-{6-[(2R)-2-methylmorpholine-4-yl]-4-(trifluoromethyl)pyridine-2-yl}-1,3-dihydro-2H-imidazole-2-one] | 101%
CCn1cc(Cn2cc(C)n(-c3cc(OCC(F)(F)F)cc(N4CCO[C@H](C)C4)n3)c2=O)cn1 [Example 105, 1-[(1-ethyl-1H-pyrazol-4-yl)methyl]-4-methyl-3-{6-[(2R)-2-methylmorpholin-4-yl]-4-(2,2,2-trifluoroethoxy)pyridin-2-yl}-1,3-dihydro-2H-imidazol-2-one] | 103%
CCn1cc(Cn2c(C)cn(-c3cc(N(C)C4CCOCC4)cc(C(F)(F)F)c3F)c2=O)cn1 [Example 53, 3-[(1-ethyl-1H-pyrazol-4-yl)methyl]-1-{2-fluoro-5-[methyl(oxan-4-yl)amino]-3-(trifluoromethyl)phenyl}-4-methyl-1,3-dihydro-2H-imidazol-2-one] | 101%
CCn1cc(Cn2c(C)c(C)n(-c3cc(C4CC4)cc(N4CCO[C@H](C)C4)n3)c2=O)cn1 [Example 162, 1-{4-cyclopropyl-6-[(2R)-2-methylmorpholin-4-yl]pyridin-2-yl}-3-[(1-ethyl-1H-pyrazol-4-yl)methyl]-4,5-dimethyl-1,3-dihydro-2H-imidazol-2-one] | 101%
CCn1cc(Cn2cc(C)n(-c3cc(OC[C@@H]4CCCO4)cc(C(F)(F)F)c3)c2=O)cn1 [Example 66, 1-[(1-ethyl-1H-pyrazol-4-yl)methyl]-4-methyl-3-[3-{[(2S)-oxolan-2-yl]methoxy}-5-(trifluoromethyl)phenyl]-1,3-dihydro-2H-imidazol-2-one] | 99%
CCn1cc(Cn2cc(C)n(-c3cc(OCC4CC4)cc(C(F)(F)F)c3)c2=O)cn1 [Example 17, 3-[3-(cyclopropylmethoxy)-5-(trifluoromethyl)phenyl]-1-[(1-ethyl-1H-pyrazol-4-yl)methyl]-4-methyl-1,3-dihydro-2H-imidazol-2-one] | 99%

Other lines, results leading:

inhibition at 30 µM | Structure (SMILES)
100% | CCn1cc(Cn2cc(C)n(-c3cc(N4CCO[C@H](C)C4)cc(C(F)(F)F)c3Cl)c2=O)cn1 [Example 82, 3-{2-chloro-5-[(2R)-2-methylmorpholin-4-yl]-3-(trifluoromethyl)phenyl}-1-[(1-ethyl-1H-pyrazol-4-yl)methyl]-4-methyl-1,3-dihydro-2H-imidazol-2-one]
98% | CCn1cc(Cn2ccn(-c3cc(N4CCO[C@@H](C)C4)cc(C(F)(F)F)c3F)c2=O)cn1 [Example 11, 1-[(1-ethyl-1H-pyrazol-4-yl)methyl]-3-{2-fluoro-5-[(2S)-2-methylmorpholin-4-yl]-3-(trifluoromethyl)phenyl}-1,3-dihydro-2H-imidazol-2-one]
99% | CCn1cc(Cn2c(C)cn(-c3cc(N4CCO[C@H](C)C4)cc(C(F)(F)F)c3C)c2=O)cn1 [Example 62, 3-[(1-ethyl-1H-pyrazol-4-yl)methyl]-4-methyl-1-{2-methyl-5-[(2R)-2-methylmorpholin-4-yl]-3-(trifluoromethyl)phenyl}-1,3-dihydro-2H-imidazol-2-one]
99% | CCn1cc(Cn2cc(C)n(-c3cc(N4CCO[C@@H](C)C4)cc(C(F)(F)F)c3)c2=O)cn1 [Example 28, 1-[(1-ethyl-1H-pyrazol-4-yl)methyl]-4-methyl-3-{3-[(2S)-2-methylmorpholin-4-yl]-5-(trifluoromethyl)phenyl}-1,3-dihydro-2H-imidazol-2-one]

same assay, conditions: relative value, inhibition rate of Example Compound 2 in Test Example 1 defined as 100%, 30 µM

Inhibition Rate at 30 μM | Structure (SMILES)
102% | CCn1cc(Cn2ccn(-c3cc(-c4ccc(F)cc4)cc(C4CC4(F)F)c3F)c2=O)cn1 (centres unmarked) [Example 145, 1-[5-(2,2-difluorocyclopropyl)-4,4′-difluoro[1,1′-biphenyl]-3-yl]-3-[(1-ethyl-1H-pyrazol-4-yl)methyl]-1,3-dihydro-2H-imidazol-2-one]

— US12630534B2 (TAKEDA PHARMACEUTICAL COMPANY LIMITED, priority 2020, dated 2026)
